IC50 data for 31 molecules are collected here from patent publication US7964643B2, “Aryl alkyl sulfonamides as therapeutic agents for the treatment of bone conditions” (The University Court of the University of Aberdeen, priority 2004, dated 2011).

The structures appear in SMILES notation.

By IC50 is commonly meant the concentration that inhibits the measured activity by half.

This test has as its system J774 macrophage cell line. Put plainly: Alamar Blue macrophage J774 viability assay. The class given is cell-based. To be noted: Mus musculus, J774, 72 h, 72 hours culture with compound, Alamar Blue, read-out: IC50 (J774). On the procedure: Initial screening of candidate compounds was performed using viability assays, on cultures of the macrophage cell line J774, which have been used before as a model system for osteoclast survival (see, e.g., Luckman et al., 1998). The assays are based on the survival of the J774 macrophage cell line; macrophages are closely related to osteoclasts, and contain similar high levels of esterase activity.
J774 cells were plated at 10^4 cells per well in 150 μL αMEM (α Modified Eagle Medium) in 96-well plates and grown overnight. The next day, compounds were added to the cultures, and culture was continued for another 72 hours. At the end of the culture period cell survival was determined using an Alamar Blue assay as previously described (see, e.g., Nociari et al., 1998).
Alamar Blue is an oxidation-reduction sensitive indicator. The dye itself is in the oxidised state, which is blue and non-fluorescent. The dye can accept electrons from reducing species, such as NADPH and FADH, to form a reduced dye species, which is red and fluorescent. Thus the transformation from oxidised form to reduced form can be measured by fluorimetric or colourimetric means. For fluorescence measurements, 530-560 nm excitation and 590 nm emission wavelengths are typically used. For colourimetric measurements, absorbance is measured at 570 nm (reduced form) and 600 nm (oxidised form) and a simple calculation performed to determine the relative quantities of the two species.
A high ratio of the reducing species, NADPH and FADH, to the corresponding oxidised species, NADP and FAD, is an indicator that cells are proliferating and viable. A low ratio indicates cells that are quiescent or non-viable.
Briefly, Alamar Blue (Biosource International) was added undiluted to the each well (1:10 v/v, 15 μL). The plate was incubated at 37° C. for 3-4 hours and the fluorescence was measured at 570 nm, with a 25 nm bandwidth. A high reading indicated cells with normal viability, and a low reading indicates cells that have been damaged and are no longer proliferating normally. The controls gave a high fluorescence reading, indicating a high number of live, healthy cells. A potent test compound gave a low fluorescence reading. The average results for each test compound (n=5) were expressed as a percent (%) of the average control value.
Addition of Compounds. All of the compounds studied were made up as 100 mM solutions in DMSO. These stock solutions were then diluted 100 or 1000× in culture medium (αMEM). From these 1 mM or 100 μM solutions, convenient quantities (3-15 μL) were added directly to the wells so as to give the desired final compound concentration.
For orientation: Resazurin is reduced to fluorescent resorufin, in cell work by metabolically active cells.
As to `O=S(=O)(NCCCCCO)c1ccc(-c2ccccc2)cc1` [ABD-180, Biphenyl-4-sulfonic acid-(5-hydroxypentyl)-amide], the half-maximal inhibitory concentration (IC50) was determined as 20 ± 3 µM.
In the case of `O=S(=O)(NCCCCO)c1ccc(-c2ccc(F)cc2)cc1` [ABD-200, 4′-Fluorobiphenyl-4-sulfonic acid-(4-hydroxybutyl)-amide], the half-maximal inhibitory concentration (IC50) was 8 ± 2.5 µM.
Take `O=S(=O)(NCCCCO)c1ccc(-c2ccc(Br)cc2)cc1` [ABD-201, 4′-Bromobiphenyl-4-sulfonic acid-(4-hydroxybutyl)-amide]: the IC50 was found to be 9 ± 2 µM.
On to `O=[N+]([O-])c1cccc(-c2ccc(S(=O)(=O)NCCCCO)cc2)c1` [ABD-226, 3′-Nitrobiphenyl-4-sulfonic acid-(4-hydroxybutyl)-amide], for which the IC50 turned out to be 33 ± 3 µM.
Regarding `O=[N+]([O-])c1ccccc1-c1ccc(S(=O)(=O)NCCCCO)cc1` [ABD-227, 2′-Nitrobiphenyl-4-sulfonic acid-(4-hydroxybutyl)-amide], the IC50 came to 2 ± 0.5 µM.
With `O=S(=O)(NCCCCO)c1ccc(-c2ccc(C(F)(F)F)cc2)cc1` [ABD-246, 4′-Trifluoromethylbiphenyl-4-sulfonic acid-(4-hydroxybutyl)-amide], the half-maximal inhibitory concentration (IC50) worked out at 5 ± 1 µM.
As for `O=S(=O)(NCCCCCO)c1ccc(-c2ccc(F)cc2F)cc1` [ABD-248, 2′,4′-Difluorobiphenyl-4-sulfonic acid-(5-hydroxypentyl)-amide], the IC50 turned out to be 4.5 ± 1 µM.
On to `O=S(=O)(NCCCCCO)c1ccc(-c2ccc(F)c(F)c2)cc1` [ABD-257, 3′,4′-Difluorobiphenyl-4-sulfonic acid-(5-hydroxypentyl)-amide], for which the half-maximal inhibitory concentration (IC50) is 16 ± 3 µM.
The figure for `CSc1ccc(-c2ccc(S(=O)(=O)NCCCCO)cc2)cc1` [ABD-258, 4′-Methylthiobiphenyl-4-sulfonic acid-(4-hydroxybutyl)-amide] is 35 ± 6 µM; for `Cc1ccc(-c2ccc(S(=O)(=O)NCCCCCO)cc2)cc1` [ABD-260, 4′-Methylbiphenyl-4-sulfonic acid-(5-hydroxypentyl)-amide] it is 12 ± 2 µM.
With `CC(=O)c1ccc(-c2ccc(S(=O)(=O)NCCCCCO)cc2)cc1` [ABD-261, 4′-Acetylbiphenyl-4-sulfonic acid-(5-hydroxypentyl)-amide], the IC50 worked out at 11 ± 2 µM.
Consider `N#Cc1ccc(-c2ccc(S(=O)(=O)NCCCCCO)cc2)cc1` [ABD-262, 4′-Cyanobiphenyl-4-sulfonic acid-(5-hydroxypentyl)-amide], for which the IC50 came to 12 ± 2 µM.
For the molecule `Nc1ccccc1-c1ccc(S(=O)(=O)NCCCCO)cc1` [ABD-263, 2′-Aminobiphenyl-4-sulfonic acid-(4-hydroxybutyl)-amide], the half-maximal inhibitory concentration (IC50) came out at 24 ± 3 µM.
The figure for `O=S(=O)(NCCCCO)c1ccc(-c2ccc(Br)cc2F)cc1` [ABD-265, 4′-Bromo-2′-fluorobiphenyl-4-sulfonic acid-(4-hydroxybutyl)-amide] is 3 ± 1 µM.
For the molecule `COc1ccccc1-c1ccc(S(=O)(=O)NCCCCCO)cc1` [ABD-267, 2′-Methoxybiphenyl-4-sulfonic acid-(5-hydroxypentyl)-amide], the IC50 was found to be 31 ± 4 µM.
As for `O=C(O)c1ccc(-c2ccc(S(=O)(=O)NCCCCCO)cc2)cc1` [ABD-271, 4′-Carboxybiphenyl-4-sulfonic acid-(5-hydroxypentyl)-amide], the IC50 worked out at 33 ± 3 µM.
The figure for `O=S(=O)(NCCCCO)c1ccc(-c2ccccc2I)cc1` [ABD-275, 2′-Iodobiphenyl-4-sulfonic acid-(4-hydroxybutyl)-amide] is 5.5 ± 1.5 µM; for `CN(C)c1ccc(-c2ccc(S(=O)(=O)NCCCCCO)cc2)cc1` [ABD-276, 4′-Dimethylaminobiphenyl-4-sulfonic acid-(5-hydroxypentyl)-amide] it is 32 ± 3 µM; for `O=S(=O)(NCCCCCO)c1ccc(-c2ccc(O)cc2)cc1` [ABD-277, 4′-Hydroxybiphenyl-4-sulfonic acid-(5-hydroxypentyl)-amide] it is 21 ± 3 µM.
Turning to `O=S(=O)(NCCCCCO)c1ccc(-c2ccc(-c3ccccc3)cc2)cc1` [ABD-279, p-Terphenyl-4-sulfonic acid-(5-hydroxypentyl)-amide], the concentration for half-maximal inhibition (IC50) turned out to be 33 ± 5 µM.
Turning to `O=S(=O)(NCCCCCO)c1ccc(-c2ccccc2C(F)(F)F)cc1` [ABD-284, 2′-Trifluoromethylbiphenyl-4-sulfonic acid-(5-hydroxypentyl)-amide], the half-maximal inhibitory concentration (IC50) amounted to 6 ± 1.5 µM.
On to `O=S(=O)(NCCCCO)c1ccc(-c2ccc(C(F)(F)F)cc2)c(F)c1` [ABD-294, 2-Fluoro-4′-trifluoromethylbiphenyl-4-sulfonic acid-(4-hydroxybutyl)-amide], for which the concentration for half-maximal inhibition (IC50) came to 5 ± 1 µM.
`CCOc1ccc(-c2ccc(S(=O)(=O)NCCCCCO)cc2)cc1` [ABD-297, 4′-Ethoxybiphenyl-4-sulfonic acid-(5-hydroxypentyl)-amide]: the 50% inhibitory concentration (IC50) is 35 ± 5 µM.
On to `O=S(=O)(NCCCCO)c1ccc(-c2ccc(C(F)(F)F)cc2)cc1F` [ABD-302, 3-Fluoro-4′-trifluoromethylbiphenyl-4-sulfonic acid-(4-hydroxybutyl)-amide], for which the half-inhibitory concentration (IC50) amounted to 5.5 ± 1.5 µM.
As for `O=S(=O)(NCCCCO)c1ccc(-c2ccc(OC(F)(F)F)cc2)cc1` [ABD-306, 4′-Trifluoromethoxybiphenyl-4-sulfonic acid-(4-hydroxybutyl)-amide], the IC50 came out at 8 ± 1 µM.
Turning to `Cc1cccc(-c2ccc(S(=O)(=O)NCCCCO)cc2)c1` [ABD-308, 3′-Methylbiphenyl-4-sulfonic acid-(4-hydroxybutyl)-amide], the half-inhibitory concentration (IC50) came to 28 ± 3 µM.
Regarding `O=S(=O)(NCCCCO)c1ccc(-c2ccccc2)cc1C(F)(F)F` [ABD-310, 3-Trifluoromethylbiphenyl-4-sulfonic acid-(4-hydroxybutyl)-amide], the IC50 is 4.5 ± 1 µM.
With `Cc1cc(S(=O)(=O)NCCCCO)ccc1-c1ccc(F)cc1` [ABD-320, 4′-Fluoro-2-methylbiphenyl-4-sulfonic acid-(4-hydroxybutyl)-amide], the half-maximal inhibitory concentration (IC50) turned out to be 2.5 ± 0.2 µM.
Regarding `O=S(=O)(NCCCCO)c1ccc(-c2ccc(F)cc2F)cc1Cl` [ABD-325, 3-Chloro-2′,4′-difluoro-biphenyl-4-sulfonic acid-(4-hydroxybutyl)-amide], the 50% inhibitory concentration (IC50) is 2.5 ± 0.5 µM.
For `O=S(=O)(NCCCCO)c1ccc(-c2ccc(F)cc2F)cc1OC(F)(F)F` [ABD-360, 2′,4′-Difluoro-3-trifluoromethoxybiphenyl-4-sulfonic acid-(4-hydroxybutyl)-amide], the IC50 was found to be 1 ± 0.3 µM.
Consider `O=[N+]([O-])c1ccccc1-c1ccc(S(=O)(=O)NCCCCO)c(C(F)(F)F)c1` [ABD-365, 2′-Nitro-3-trifluoromethylbiphenyl-4-sulfonic acid-(4-hydroxybutyl)-amide], for which the IC50 was found to be 0.3 ± 0.1 µM.
